Experimental data published in patent US10233152B2, “LSD1 inhibitors” (Mirati Therapeutics, Inc., priority 2015, dated 2019).

Legend:
[1] = target: purified N-terminal truncated human LSD1 enzyme (aa 151-852) (Homo sapiens (Human), UniProt O60341); test: LSD1 fluorescence coupling enzymatic assay (horseradish peroxidase/Amplex Red); format: biochemical; details: 50 nM LSD1, 30 min pre-incubation, histone 3.3 peptide (aa 1-21), 10-point dose-response; read-out: Inhibition of LSD1 Activity IC50
Protocol: Briefly, compounds of the present invention were solubilized in DMSO and a series of 10, three-fold serial dilutions were made for each compound in 15% DMSO. The initial starting concentration for the serial dilutions of each compound was 10 μM.
An aliquot of each serial dilution of test compound was added to a 96 well plate containing 50 nM purified N-truncated LSD1 enzyme (RBC Cat# PDM-11-350), 50 mM Tris-HCl, pH 7.5, 0.05% CHAPS and 1% DMSO in a 10 microliter reaction volume. The plate was pre-incubated at room temperature for 30 min to which 10 M of histone 3.3 peptide (aa 1-21) was added to initiate the enzymatic reaction. The reaction mixture was incubated at room temperature for one hour. […] The IC50 value for each compound was determined from each 10-point dose-response curve using GraphPad Prism 4 software with a sigmodial dose response.

MV4-11 cells = test: Inhibition of LSD1-mediated cell proliferation, CellTiter Glo luminescence assay; details: Homo sapiens, MV4-11, 168 h, read-out: Inhibition of LSD1-mediated Cell Proliferation IC50
Protocol: Inhibition of LSD1-mediated cellular proliferation by compounds of Formula (I) or Formula (II) was measured in a CellTiter Glo luminescence assay (Promega Corp), which determines the number of viable cells by quantitating the amount of ATP, using a BMG LabTech CLARIOStar instrument in accordance with the manufacturer's instructions. […] The plates were incubated at 37° C. for four days and thereafter 50 μl fresh medium containing the same concentration of test compound was added. The plates were incubated for an additional three days (Day 7). A baseline measurement, as described below, was taken for a time zero point at Day 0.
At Day 7, the supernatant was removed by aspiration and the plate was allowed to equilibrate to room temperature (˜15 min). The cells were lysed using 45 μl (30 μl for Day 0) of Cell Titer Glo reagent (Promega Corp). The plates were shaken for two minutes and incubated at room temperature for 30 minutes. The degree of inhibition of cell viability was determined using a spectrophotometric readout by measuring the luminescence at 340 nm and the EC50 concentration for each compound was calculated using Graph Pad Prism 4 software.

Row | Compound | IC50 [1] [nM] | IC50 (MV4-11 cells) [nM]
1 | Brc1ccc(NCCN2CCC(N[C@@H]3C[C@H]3c3ccccc3)CC2)cc1 [Example 33, 1-(2-((4-bromophenyl)amino)ethyl)-N-((1R,2S)-2-phenylcyclopropyl)piperidin-4-amine] | < 1 | < 1
2 | C[N+]1(CCOc2ccc(CC(=O)NS(C)(=O)=O)cc2)CC(CN[C@@H]2C[C@H]2c2ccccc2)C1 (stereo partly drawn) [Example 98] |  | > 1000
